According to patent publication US20240016895A1, “HEPCIDIN MIMETICS FOR TREATMENT OF SICKLE CELL DISEASE” (Protagonist Therapeutics, Inc., priority 2022, published 2024):
Entries after “also recorded” stand apart in the source; their conditions may differ. Where a SMILES comes first, the peptide text is derived from it.

Assays:
Format in all cases: in vivo
Townes SCD mice [1] = assay: Serum RBC hemolysis biomarkers (total bilirubin, LDH) in Townes SCD mice treated for 4 weeks; conditions: for LDH / Total bilirubin: serum, 4 weeks
Experimental: (§1) Compound 46, a hepcidin mimetic, was administered subcutaneously at 1.0 mg/kg (group 3, N=9) or 2.5 mg/kg (group 4, N=9) in Townes SCD mice. 36 Townes SCD and 6 129S1/SvlmJ (wild-type), female mice, 5 weeks old upon delivery. A control group of wild-type mice (groups 1, N=6) was treated with vehicle as well as another SCD mice (group 2, N=9). All mice were dosed three times per week (TIW). All mice were maintained on an iron-adjusted diet (TD.140258, 35 ppm iron) throughout the study. Collections and necropsies were performed 24 hours post-last dose of compound or vehicle. After 4 weeks on study, animals from each group were euthanized, EDTA whole blood collected for CBC and serum was collected for hemolysis biomarker analysis. Spleens and livers were weighed at terminus. Liver, spleen, kidney, heart and brain were collected for future analysis. Serum and urine were collected to analyze chemistry markers, such as bilirubin, LDH (lactate dehydrogenase), haptoglobin, urine creatinine, urine total protein and urine urea nitrogen.
Serum total bilirubin and serum lactate dehydrogenase are hemolysis biomarkers.

Townes SCD mice [2] = assay: Spleen and liver weights and organ to body weight ratios at terminus in Townes SCD mice
Experimental: as §1, with “Compound 46, a hepcidin mimetic, was administered subcutaneously at 1.0 mg/kg (group 3, N=9) or 2.5 mg/kg (group 4, N=9) in Townes SCD mice.” left out

Townes SCD mice [3] = assay: Complete blood count (hematological parameters) in Townes SCD mice treated for 4 weeks; conditions: for % Retics / Abs Retics / HCT / HGB / MCH / MCHC / MCV / RBC: 4 weeks
Experimental: as §1
As shown in FIG. 4A and FIG. 4B, reticulocytes were counted both with the automated analyzer as well as manually from a new methylene blue stained blood smear by counting the number of positive stained cells encountered in 500 erythrocytes and calculating the percentage.

[4] = Dose 1 (mg/kg subcutaneously TIW)
[5] = Dose 2.5 (mg/kg subcutaneously TIW)

Structure (SMILES): CCCCCCCCCCCCCCCC(=O)N[C@@H](CCC(=O)NCCCC[C@@H]1NC(=O)[C@H]([C@@H](C)CC)NC(=O)[C@@H](NC(=O)[C@@H]2CCCN2C(=O)[C@H](Cc2ccccc2)NC(=O)[C@H](Cc2cnc[nH]2)NC(=O)[C@@H](NC(=O)[C@H](CCC(=O)O)NC(=O)CC(C)C)[C@@H](C)O)CSSC[C@@H](C(=O)N[C@@H](CCCCN)C(N)=O)NC(=O)CNC(=O)[C@H](CCCCN)NC(=O)[C@H](CO)NC(=O)[C@H](CCCNC(=N)N)NC(=O)[C@@H]2CCCN2C(=O)[C@H](CCC(=O)O)NC(=O)[C@H](Cc2ccccc2)NC1=O)C(=O)O [Compound 46, Isovaleric_Acid-ETHFPCI(K(IsoGlu_Palm))FEPRSKGCK-NH2] (HELM PEPTIDE1{[CC(C)CC(=O)[*:2]].E.T.H.F.P.C.I.K.F.E.P.R.S.K.G.C.K.[am]}|PEPTIDE2{[CCCCCCCCCCCCCCCC(=O)[*:2]].[gGlu]}$PEPTIDE1,PEPTIDE2,9:R3-2:R2|PEPTIDE1,PEPTIDE1,7:R3-17:R3$$$V2.0)
- Serum total bilirubin (Townes SCD mice [1]; result in words, FIG. 9A): significantly reduced both parameters in a dose dependent manner
- Serum lactate dehydrogenase (LDH) (Townes SCD mice [1]; result in words, FIG. 9B): significantly reduced both parameters in a dose dependent manner
- LDH (Townes SCD mice [1]; [4]): 610.6 ± 341.0 U/L
- Total bilirubin (Townes SCD mice [1]; [4]): 2.16 ± 0.34 mg/dL
- LDH (Townes SCD mice [1]; [5]): 372.3 ± 70.96 U/L
- Total bilirubin (Townes SCD mice [1]; [5]): 1.13 ± 0.37 mg/dL
- Liver Weight (Townes SCD mice [2]; SCD mice, Dose 1): 1.290 g
- Liver:BW Ratio (Townes SCD mice [2]; SCD mice, Dose 1): 0.0633 g/g
- Spleen Weight (Townes SCD mice [2]; SCD mice, Dose 1): 1.035 g
- Spleen:BW Ratio (Townes SCD mice [2]; SCD mice, Dose 1): 0.0508 g/g
- Liver Weight (Townes SCD mice [2]; SCD mice, Dose 2.5): 1.138 g
- Liver:BW Ratio (Townes SCD mice [2]; SCD mice, Dose 2.5): 0.0573 g/g
- Spleen Weight (Townes SCD mice [2]; SCD mice, Dose 2.5): 0.725 g
- Spleen:BW Ratio (Townes SCD mice [2]; SCD mice, Dose 2.5): 0.0365 g/g
- Liver Weight (Townes SCD mice [2]; SCD mice, Dose 7.5): 0.758 g
- Liver:BW Ratio (Townes SCD mice [2]; SCD mice, Dose 7.5): 0.0549 g/g
- Spleen Weight (Townes SCD mice [2]; SCD mice, Dose 7.5): 0.301 g
- Spleen:BW Ratio (Townes SCD mice [2]; SCD mice, Dose 7.5): 0.0217 g/g
- Spleen weights compared to vehicle (Townes SCD mice [2]; SCD mice, result in words, FIG. 1A): significantly and dose-dependently lower
- Spleen to body weight ratios compared to vehicle (Townes SCD mice [2]; SCD mice, result in words, FIG. 1B): significantly and dose-dependently lower
- Liver weight compared to vehicle treated SCD mice (Townes SCD mice [2]; SCD mice, result in words, FIG. 2A): significantly lower in a dose dependent manner
- Liver to body weight ratios compared to vehicle treated SCD mice (Townes SCD mice [2]; SCD mice, result in words, FIG. 2B): significantly lower in a dose dependent manner
- Spleen size (Townes SCD mice [2]; Townes SCD mice, figure legend FIG. 1A/1B): reduces spleen size
- Liver size (Townes SCD mice [2]; Townes SCD mice, figure legend FIG. 2A/2B): reduces liver size
- RBC count (Townes SCD mice [3]; 2.5 mg/kg dose, result in words, FIG. 3A): significantly reduced
- Percent of reticulocytes compared to vehicle control (Townes SCD mice [3]; 2.5 mg/kg dose, result in words, FIG. 4B): decreased percent of reticulocytes significantly
- Mean corpuscular hemoglobin concentration (MCHC) compared to vehicle control (Townes SCD mice [3]; 2.5 mg/kg, result in words, FIG. 6B): significant increase in MCHC
- % Retics (Townes SCD mice [3]; [4]): 65.78 ± 12.23%
- Abs Retics (Townes SCD mice [3]; [4]): 2612 ± 627.9 K/uL
- HCT (Townes SCD mice [3]; [4]): 29.62 ± 3.45 %
- HGB (Townes SCD mice [3]; [4]): 5.89 ± 0.93 g/dL
- MCH (Townes SCD mice [3]; [4]): 9.89 ± 0.45 pg
- MCHC (Townes SCD mice [3]; [4]): 19.82 ± 1.65 g/dL
- MCV (Townes SCD mice [3]; [4]): 50.11 ± 3.41 fL
- RBC (Townes SCD mice [3]; [4]): 5.94 ± 0.78 M/uL
- % Retics (Townes SCD mice [3]; [5]): 50.33 ± 6.73 %
- Abs Retics (Townes SCD mice [3]; [5]): 1195 ± 246.5 K/uL
- HCT (Townes SCD mice [3]; [5]): 16.27 ± 7.23 %
- HGB (Townes SCD mice [3]; [5]): 4.39 ± 0.36 g/dL
- MCH (Townes SCD mice [3]; [5]): 9.82 ± 0.63 pg
- MCHC (Townes SCD mice [3]; [5]): 23.22 ± 3.10 g/dL
- MCV (Townes SCD mice [3]; [5]): 42.56 ± 3.81 fL
- RBC (Townes SCD mice [3]; [5]): 4.49 ± 0.55 M/uL
- Hgb level (Townes SCD mice [3]; result in words, FIG. 3B): significantly reduced in all three dose groups
- Hematocrit (HCT) (Townes SCD mice [3]; result in words, FIG. 5A): significant reduction of HCT in a dose dependent manner
- Mean corpuscular volume (MCV) compared to the vehicle group (Townes SCD mice [3]; result in words, FIG. 5B): significant reduction of MCV in a dose dependent manner
- Mean corpuscular hemoglobin (MCH) compared to vehicle control (Townes SCD mice [3]; result in words, FIG. 6A): significant reduction in MCH
- White blood cell (WBC) count (Townes SCD mice [3]; result in words, FIG. 7A): significant WBC and lymphocyte reduction in a dose dependent manner; also recorded: alleviated elevated white blood cell (WBC) and lymphocytes counts
- Lymphocyte count (Townes SCD mice [3]; result in words, FIG. 7B): significant WBC and lymphocyte reduction in a dose dependent manner; also recorded: alleviated elevated white blood cell (WBC) and lymphocytes counts
- Neutrophil count (Townes SCD mice [3]; result in words, FIG. 8A): significantly decreased neutrophil count in a dose dependent manner; also recorded: alleviated elevated neutrophil and monocyte counts
- Monocyte count (Townes SCD mice [3]; result in words, FIG. 8B): alleviated elevated neutrophil and monocyte counts
